Laboratory results reported in PubChem BioAssay AID743104 (Vanderbilt Specialized Chemistry Center, 2013).

Molecular target: Muscarinic acetylcholine receptor M5 (Rattus norvegicus) (UniProt P08911)
Test: rat M5 receptor negative allosteric modulators, selectivity assay for human M5 NAM project, cell-based, rat ortholog, CHO-K1, Fluo-4 calcium flux (AID 743104)
Conditions: CHO-K1 rat M5, Fluo-4 calcium flux, ACh EC20

Muscarinic acetylcholine receptor M5 (Rattus norvegicus), sequence (P08911 whole entry, looked up): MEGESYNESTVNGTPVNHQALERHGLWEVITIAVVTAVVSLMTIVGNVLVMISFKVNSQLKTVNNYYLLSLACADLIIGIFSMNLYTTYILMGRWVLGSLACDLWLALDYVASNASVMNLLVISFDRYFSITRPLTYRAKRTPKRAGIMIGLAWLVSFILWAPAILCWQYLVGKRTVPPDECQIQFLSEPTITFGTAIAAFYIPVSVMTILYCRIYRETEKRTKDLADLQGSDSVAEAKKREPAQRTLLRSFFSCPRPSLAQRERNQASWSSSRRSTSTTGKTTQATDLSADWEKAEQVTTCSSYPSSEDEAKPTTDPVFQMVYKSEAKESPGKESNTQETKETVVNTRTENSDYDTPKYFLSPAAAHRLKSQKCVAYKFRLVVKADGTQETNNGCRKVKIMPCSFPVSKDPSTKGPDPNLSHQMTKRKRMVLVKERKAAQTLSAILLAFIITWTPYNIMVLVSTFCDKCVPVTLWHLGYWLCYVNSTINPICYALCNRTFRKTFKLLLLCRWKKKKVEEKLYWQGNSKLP

Structure (SMILES)	IC50
O=C(c1ccc(F)c(F)c1)N1CCN2C(=O)c3ccccc3C12c1ccccc1 (stereo not drawn)	2 µM
O=C(c1ccc(F)cc1)N1CCN2C(=O)c3ccccc3C12c1ccccc1 (stereo not drawn)	6.21 µM
O=C(c1cc(F)cc(F)c1)N1CCN2C(=O)c3ccccc3C12c1ccc(Cl)cc1 (stereo not drawn)	3.54 µM
